Numbered stars: 1 amine (or outer) side, 2 acyl side, 3 side chain; on linkers, the order of the positions; unused ones are H or OH. Square brackets hold non-standard residues; d marks the D form. Side chains are listed from the residue outwards. Peptide text beside a SMILES is read from it. * marks the point of attachment. Nonadecanoyl(19-PO3H2) = O=C(CCCCCCCCCCCCCCCCCCP(=O)(O)O)*; γGlu = O=C(O)[C@H](CCC(=O)[*:2])N[*:1]; AEEA = NCCOCCOCC(=O)O; Aib = CC(C)(N)C(=O)O
Experiment: Pharmacokinetic study of Compounds 4, 14, 15, 17 in monkeys
Settings: cynomolgus monkey, plasma, sc, 0.2 mg/kg
Protocol: The formulations were administered to cynomolgus monkeys at a dose of 0.2 mg/kg. Plasma concentration versus time data was collected and pharmacokinetic values determined.

SMILES	AUC(0-inf) [µg·h/mL]	AUC(0-t) [µg·h/mL]	CL/F [mL/day/kg]	Cmax [ng/mL]	Tmax [h]	Vd/F [L/kg]	half-life [h]
CC[C@H](C)[C@H](NC(=O)[C@H](CC(C)C)NC(=O)[C@H](Cc1c[nH]c2ccccc12)NC(=O)[C@H](CCC(N)=O)NC(=O)[C@@H](NC(=O)[C@H](Cc1ccccc1)NC(=O)[C@H](C)NC(=O)[C@H](CCCCNC(=O)COCCOCCNC(=O)COCCOCCNC(=O)CC[C@H](NC(=O)CCCCCCCCCCCCCCCCCCP(=O)(O)O)C(=O)O)NC(=O)[C@H](CCC(N)=O)NC(=O)[C@H](C)NC(=O)[C@@H](NC(=O)[C@H](CCCCN)NC(=O)[C@H](CC(=O)O)NC(=O)[C@H](CC(C)C)NC(=O)C(C)(C)NC(=O)[C@@H](NC(=O)[C@H](CO)NC(=O)[C@H](Cc1ccc(O)cc1)NC(=O)[C@H](CC(=O)O)NC(=O)[C@H](CO)NC(=O)[C@@H](NC(=O)[C@H](Cc1ccccc1)NC(=O)[C@@H](NC(=O)CNC(=O)[C@H](CCC(=O)O)NC(=O)C(C)(C)NC(=O)[C@@H](N)Cc1ccc(O)cc1)[C@@H](C)O)[C@@H](C)O)[C@@H](C)CC)[C@@H](C)CC)C(C)C)C(=O)N[C@@H](C)C(=O)NCC(=O)NCC(=O)N1CCC[C@H]1C(=O)N[C@@H](CO)C(=O)N[C@@H](CO)C(=O)NCC(=O)N[C@@H](C)C(=O)N1CCC[C@H]1C(=O)N1CCC[C@H]1C(=O)N1CCC[C@H]1C(=O)N[C@@H](CO)C(N)=O [Compound 14]	179	178	28.6	1430	24	0.104	60.9
CC[C@H](C)[C@H](NC(=O)[C@H](CC(C)C)NC(=O)[C@H](Cc1c[nH]c2ccccc12)NC(=O)[C@H](CCC(N)=O)NC(=O)[C@@H](NC(=O)[C@H](Cc1ccccc1)NC(=O)[C@H](C)NC(=O)[C@H](CCCCNC(=O)COCCOCCNC(=O)COCCOCCNC(=O)CC[C@H](NC(=O)CCCCCCCCCCCCCCCCCCP(=O)(O)O)C(=O)O)NC(=O)[C@H](CCC(N)=O)NC(=O)[C@H](C)NC(=O)[C@@H](NC(=O)[C@H](CCCCN)NC(=O)[C@H](CC(=O)O)NC(=O)[C@H](CC(C)C)NC(=O)C(C)(C)NC(=O)[C@@H](NC(=O)[C@H](CO)NC(=O)[C@H](Cc1ccc(O)cc1)NC(=O)[C@H](CC(=O)O)NC(=O)[C@H](CO)NC(=O)[C@@H](NC(=O)[C@H](Cc1ccccc1)NC(=O)[C@@H](NC(=O)CNC(=O)[C@H](CCC(=O)O)NC(=O)C(C)(C)NC(=O)[C@@H](N)Cc1ccc(O)cc1)[C@@H](C)O)[C@@H](C)O)[C@@H](C)CC)C(C)C)C(C)C)C(=O)N[C@@H](CCCNC(=N)N)C(=O)NCC(=O)NCC(=O)N1CCC[C@H]1C(=O)N[C@@H](CO)C(=O)N[C@@H](CO)C(=O)NCC(=O)N[C@@H](C)C(=O)N1CCC[C@H]1C(=O)N1CCC[C@H]1C(=O)N1CCC[C@H]1C(=O)N[C@@H](CO)C(N)=O [Compound 17] (H-Y[Aib]EGTFTSDYSI[Aib]LDKVAQK([AEEA-AEEA-γGlu-Nonadecanoyl(19-PO3H2)])AFVQWLIRGGPSSGAPPPS-NH2)	346	316	14.2	1980	28	0.113	134

Reference: patent publication US20260097126A1, “PHARMACEUTICAL FORMULATIONS AND METHODS FOR THE TREATMENT OF METABOLIC AND LIVER DISORDERS” (priority 2022, published 2026)
